According to publication PMC4503722, “Novel Phenotypic Outcomes Identified for a Public Collection of Approved Drugs from a Publicly Accessible Panel of Assays” (PLoS ONE, 2015):
Where two headings read alike, the source gives them in different places.

Assays:
[1] = test system: endothelial tube formation in co-cultures of ECFCs and ADSCs treated with VEGF; test: cells; assay type: cell-based, human; conditions: for IC50: read-out: VEGF_ADSC\ECFC Angio CD31 TubeArea summarized IC50
DLD-1 = test: cells; assay type: cell-based; conditions: for IC50: read-out: Basal_Viability ATP DLD-1 summarized IC50
SW480 = test: cells; assay type: cell-based; conditions: for IC50: read-out: Basal_Viability ATP SW480 summarized IC50
HCT116 = test: cells; assay type: cell-based; conditions: for IC50: read-out: Basal_Viability ATP HCT116 summarized IC50
[2] = test system: HCT116 cells treated with a GSK3β inhibitor; test: cells; assay type: cell-based; conditions: for IC50: read-out: GSK3b inh pretreated_Viability ATP HCT116 summarized IC50; for IC50/EC50, GSK3b inh pretreated_Viability ATP HCT116 (assay number 26): GSK3b inh pretreated
Colo320 = test: cells; assay type: cell-based; conditions: for IC50: read-out: Basal_Viability ATP Colo 320 summarized IC50
HT-29 = test: cells; assay type: cell-based; conditions: for IC50: read-out: Basal_Viability ATP HT-29 summarized IC50
RKO = test: cells; assay type: cell-based; conditions: for IC50: read-out: Basal_Viability ATP RKO summarized IC50
SNU-C1 = test: cells; assay type: cell-based; conditions: for IC50: read-out: Basal_Viability ATP SNU-C1 summarized IC50
[3] = test system: ECFC/ADSC co-culture cell nuclei number; conditions: for IC50: read-out: VEGF_ADSC\ECFC Angio Hoechst NucArea summarized IC50
[4] = assay number 26, GSK3b inhibitor pretreated
[5] = assay number 23, concentration response
[6] = assay number 24, concentration response
[7] = assay number 25, basal, concentration response
[8] = assay number 26, GSK3b inhibitor pretreated, concentration response
[9] = assay number 27, concentration response
[10] = assay number 28, concentration response
[11] = assay number 29, concentration response
[12] = assay number 30, concentration response

SMILES	VEGF_ADSC\ECFC Angio CD31 TubeArea IC50/EC50 [1] [µM]	Basal_Viability ATP DLD-1 IC50/EC50 (DLD-1; assay number 23, basal) [µM]	Basal_Viability ATP SW480 IC50/EC50 (SW480; assay number 24, basal) [µM]	Basal_Viability ATP HCT116 IC50/EC50 (HCT116; assay number 25, basal) [µM]	GSK3b inh pretreated_Viability ATP HCT116 IC50/EC50 [2, 4] [µM]	Basal_Viability ATP Colo 320 IC50/EC50 (Colo320; assay number 27, basal) [µM]	Basal_Viability ATP HT-29 IC50/EC50 (HT-29; assay number 28, basal) [µM]	Basal_Viability ATP RKO IC50/EC50 (RKO; assay number 29, basal) [µM]	Basal_Viability ATP SNU-C1 IC50/EC50 (SNU-C1; assay number 30, basal) [µM]	VEGF_ADSC\ECFC Angio Hoechst NucArea IC50/EC50 [3] [µM]	further results
CN1CCN(c2cc3c(nn2)Oc2ccccc2N3C)CC1 [NCGC00160646-02]	> 10	> 20	> 20	> 20	> 20	> 20	> 20	> 20	> 20	> 10	–
CNC(=O)Oc1cccc2ccccc12 [NCGC00090680-06]	–	–	–	–	–	–	–	–	–	–	IC50 [1]: > 10 µM; IC50 (DLD-1; assay number 23, basal): > 20 µM; IC50 (SW480; assay number 24, basal): > 20 µM; IC50 (HCT116; assay number 25, basal): > 20 µM; IC50 [2, 4]: > 20 µM; IC50 (Colo320; assay number 27, basal): > 20 µM; IC50 (HT-29; assay number 28, basal): > 20 µM; IC50 (RKO; assay number 29, basal): > 20 µM; IC50 (SNU-C1; assay number 30, basal): > 20 µM; IC50 [3]: > 10 µM
CC1=C(/C=C/C(C)=C/C=C/C(C)=C/C(=O)Nc2ccc(O)cc2)C(C)(C)CCC1 [NCGC00090752-12]	–	–	–	–	–	–	–	–	–	–	IC50/EC50, VEGF_ADSC\ECFC Angio CD31 TubeArea (assay number 2) [1]: 1.3414 µM; IC50/EC50, Basal_Viability ATP DLD-1 (assay number 23) (DLD-1; basal): 9.4899 µM; IC50/EC50, Basal_Viability ATP SW480 (assay number 24) (SW480; basal): 4.8504 µM; IC50/EC50, Basal_Viability ATP HCT116 (assay number 25) (HCT116; basal): 5.2999 µM; IC50/EC50, GSK3b inh pretreated_Viability ATP HCT116 (assay number 26) [2]: 4.9507 µM; IC50/EC50, Basal_Viability ATP Colo 320 (assay number 27) (Colo320; basal): 3.2421 µM; IC50/EC50, Basal_Viability ATP HT-29 (assay number 28) (HT-29; basal): 2.1199 µM; IC50/EC50, Basal_Viability ATP RKO (assay number 29) (RKO; basal): 1.718 µM; IC50/EC50, Basal_Viability ATP SNU-C1 (assay number 30) (SNU-C1; basal): 6.6943 µM; IC50/EC50, VEGF_ADSC\ECFC Angio Hoechst NucArea (assay number 3) [3]: 6.2365 µM
CCCCC[C@@H](O)CC[C@H]1[C@@H]2Cc3cccc(OCC(=O)O)c3C[C@@H]2C[C@@H]1O [NCGC00319020-01]	> 10	> 20	> 20	> 20	> 20	> 20	> 20	> 20	> 20	> 10	–
COc1ccc2c(c1)c1c3n2CCN(C)C3=NCC1 [NCGC00072886-03]	> 10	> 20	> 20	> 20	> 20	> 20	> 20	> 20	> 20	> 10	–
CCOC(=O)c1ccccc1C(=O)OCC [NCGC00090974-06]	> 10	> 20	> 20	> 20	> 20	> 20	> 20	> 20	> 20	> 10	–
O=C(NC(=O)c1c(F)cccc1F)Nc1ccc(Cl)c(Oc2ncc(C(F)(F)F)cc2Cl)c1 [NCGC00166205-02]	> 10	–	–	–	–	–	–	–	–	> 10	Basal_Viability ATP DLD-1 IC50/EC50 (DLD-1; [5]): > 20 µM; Basal_Viability ATP SW480 IC50/EC50 (SW480; [6]): > 20 µM; Basal_Viability ATP HCT116 IC50/EC50 (HCT116; [7]): > 20 µM; GSK3b inh pretreated_Viability ATP HCT116 IC50/EC50 [2, 8]: 10.6205 µM; Basal_Viability ATP Colo 320 IC50/EC50 (Colo320; [9]): > 20 µM; Basal_Viability ATP HT-29 IC50/EC50 (HT-29; [10]): > 20 µM; Basal_Viability ATP RKO IC50/EC50 (RKO; [11]): 11.8144 µM; Basal_Viability ATP SNU-C1 IC50/EC50 (SNU-C1; [12]): > 20 µM
CCOC(=O)[C@H](CCc1ccccc1)N[C@@H](C)C(=O)N1C(=O)N(C)C[C@H]1C(=O)O.Cl [NCGC00181342-02]	> 10	> 20	> 20	> 20	> 20	> 20	> 20	> 20	> 20	> 10	–
O=[N+]([O-])c1cccc(S(=O)(=O)NCCNS(=O)(=O)c2cccc([N+](=O)[O-])c2)c1 [NCGC00160679-02]	> 10	> 20	> 20	> 20	> 20	> 20	> 20	> 20	> 20	> 10	–
CCC1Nc2cc(Cl)c(S(N)(=O)=O)cc2S(=O)(=O)N1 (stereo not shown) [NCGC00160540-03]	> 10	> 20	> 6.6667	> 20	> 20	> 20	> 20	> 20	> 20	> 10	–
Cl.NC1=NCC2c3ccccc3Cc3ccccc3N12 (stereo not shown) [NCGC00165791-04]	> 10	> 20	> 20	> 20	> 20	> 20	> 20	> 20	> 20	> 10	–
NC(=O)n1c(O)c(C(=O)c2cccs2)c2cc(Cl)ccc21 [NCGC00263542-01]	–	–	–	–	–	–	–	–	–	–	IC50/EC50, VEGF_ADSC\ECFC Angio CD31 TubeArea (assay number 2) [1]: > 10 µM; IC50/EC50, Basal_Viability ATP DLD-1 (assay number 23) (DLD-1; basal): 6.9467 µM; IC50/EC50, Basal_Viability ATP SW480 (assay number 24) (SW480; basal): 1.02 µM; IC50/EC50, Basal_Viability ATP HCT116 (assay number 25) (HCT116; basal): 2.309 µM; IC50/EC50, GSK3b inh pretreated_Viability ATP HCT116 (assay number 26) [2]: 3.787 µM; IC50/EC50, Basal_Viability ATP Colo 320 (assay number 27) (Colo320; basal): 1.643 µM; IC50/EC50, Basal_Viability ATP HT-29 (assay number 28) (HT-29; basal): 5.6005 µM; IC50/EC50, Basal_Viability ATP RKO (assay number 29) (RKO; basal): 4.703 µM; IC50/EC50, Basal_Viability ATP SNU-C1 (assay number 30) (SNU-C1; basal): 0.5375 µM; IC50/EC50, VEGF_ADSC\ECFC Angio Hoechst NucArea (assay number 3) [3]: > 10 µM
CCCCCCCCCCCCCCCC(=O)OC/C=C(C)/C=C/C=C(C)/C=C/C1=C(C)CCCC1(C)C [NCGC00095056-04]	–	–	–	–	–	–	–	–	–	–	IC50 [1]: > 10 µM; IC50 (DLD-1; assay number 23, basal): > 20 µM; IC50 (SW480; assay number 24, basal): > 20 µM; IC50 (HCT116; assay number 25, basal): > 20 µM; IC50 [2, 4]: > 20 µM; IC50 (Colo320; assay number 27, basal): > 20 µM; IC50 (HT-29; assay number 28, basal): > 20 µM; IC50 (RKO; assay number 29, basal): > 20 µM; IC50 (SNU-C1; assay number 30, basal): > 20 µM; IC50 [3]: > 10 µM
O=C([O-])CCC(=O)OC[C@@H](NC(=O)C(Cl)Cl)[C@H](O)c1ccc([N+](=O)[O-])cc1.[Na+] [NCGC00094619-06]	> 10	–	–	–	–	–	–	–	–	> 10	Basal_Viability ATP DLD-1 IC50/EC50 (DLD-1; [5]): > 20 µM; Basal_Viability ATP SW480 IC50/EC50 (SW480; [6]): > 20 µM; Basal_Viability ATP HCT116 IC50/EC50 (HCT116; [7]): > 20 µM; GSK3b inh pretreated_Viability ATP HCT116 IC50/EC50 [2, 8]: > 20 µM; Basal_Viability ATP Colo 320 IC50/EC50 (Colo320; [9]): > 20 µM; Basal_Viability ATP HT-29 IC50/EC50 (HT-29; [10]): > 20 µM; Basal_Viability ATP RKO IC50/EC50 (RKO; [11]): > 20 µM; Basal_Viability ATP SNU-C1 IC50/EC50 (SNU-C1; [12]): > 20 µM
CC(C)(CO)[C@@H](O)C(=O)NCCC(=O)NCCSSCCNC(=O)CCNC(=O)[C@H](O)C(C)(C)CO [NCGC00181028-02]	> 10	–	–	–	–	–	–	–	–	> 10	Basal_Viability ATP DLD-1 IC50/EC50 (DLD-1; [5]): > 20 µM; Basal_Viability ATP SW480 IC50/EC50 (SW480; [6]): > 20 µM; Basal_Viability ATP HCT116 IC50/EC50 (HCT116; [7]): > 20 µM; GSK3b inh pretreated_Viability ATP HCT116 IC50/EC50 [2, 8]: > 20 µM; Basal_Viability ATP Colo 320 IC50/EC50 (Colo320; [9]): > 20 µM; Basal_Viability ATP HT-29 IC50/EC50 (HT-29; [10]): > 20 µM; Basal_Viability ATP RKO IC50/EC50 (RKO; [11]): > 20 µM; Basal_Viability ATP SNU-C1 IC50/EC50 (SNU-C1; [12]): > 20 µM
Oc1c(Br)cc(Br)c2cccnc12 [NCGC00094815-05]	–	–	–	–	–	–	–	–	–	–	IC50 [1]: > 10 µM; IC50 (DLD-1): 0.157 µM; IC50 (SW480): 0.132 µM; IC50 (HCT116): 0.193 µM; IC50 [2]: 0.183 µM; IC50 (Colo320): 0.114 µM; IC50 (HT-29): 5.25 µM; IC50 (RKO): 0.163 µM; IC50 (SNU-C1): 0.366 µM; IC50 [3]: > 10 µM
